How the values were obtained:
SlyA [1] = biological target: T1, SlyA (Salmonella enterica, UniProt P40676); assay: ITC with purified SlyA at […]°C; supported by 1H, […]-HSQC NMR; assay type: binding
SlyA [2] = biological target: T1, SlyA; assay: ITC with purified SlyA; supported by NMR; assay type: binding

T1 sequence (P40676 whole entry): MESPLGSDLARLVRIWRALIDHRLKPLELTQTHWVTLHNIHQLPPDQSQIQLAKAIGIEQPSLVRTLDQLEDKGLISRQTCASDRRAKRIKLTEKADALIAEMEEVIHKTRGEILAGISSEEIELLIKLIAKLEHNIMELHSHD

`O=C(O)c1ccc(O)cc1` [4-hydroxybenzoate] was tested, and the Kd (SlyA [1]) was roughly 100 µM.
For `O=C(O)c1ccccc1O` [salicylate], the Kd (SlyA [2]) was 36 µM.
Compound `O=C(O)c1cccc(O)c1O` [2,3-dihydroxybenzoate] has a Kd (SlyA [1]) of roughly 57 µM.
